“Also recorded” adds a separate entry of the source.
Columns and labels:
Format in all cases: cell-based
[1] = target: T1, CRBN (Homo sapiens, UniProt Q96SW2); assay: CRBN inverse MAPPIT competition assay against TMP-lenalidomide hybrid ligand; conditions: 300 nM TMP-lenalidomide; leptin; HEK293T; specificity versus gp130-REM2 control (CTRL)
T1 construct: expressed in transfected cells; host or cells: HEK293T
Source text: As in Example 6, HEK293T cells were transfected with a plasmid encoding E. coli Dihydrofolate Reductase (DHFR) fused to the tails of the cytoplasmic domain of a mutated leptin receptor (pCLG-DHFR), a plasmid encoding a CRBN prey fused to the gp130 cytoplasmic domain or a plasmid encoding a gp130-REM2 control fusion that can directly interact with the leptin receptor of the DHFR fusion protein, and the STAT3 responsive pXP2d2-rPAPI-luciferase reporter plasmid—using a standard transfection method, as described (Lievens, et al. “Array MAPPIT: high-throughput interactome analysis in mammalian cells.” Journal of Proteome Research 8.2 (2009): 877-886). […] Data points in FIGS. 10A-B represent the average luciferase activity of triplicate samples derived from cells treated with leptin+test compound for the REM2 control (CTRL) or cells treated with leptin+hybrid ligand+test compound (CRBN) relative to leptin (CTRL) or leptin+hybrid ligand (CRBN) only treated samples (the signals obtained in absence of added test compound for both cases is set at 100% of luciferase activity on y-axis). Error bars represent standard deviations. Curves were fit using 4-parameter nonlinear regression in […] PRISM software.

[2] = target: T2, DCAF15-RBM39 binding (Homo sapiens, UniProt Q66K64); assay: MAPPIT inverse assay, RBM39 receptor fusion + DCAF15 gp130 fusion; conditions: inverse configuration; leptin; HEK293T
T2 construct: expressed in transfected cells; host or cells: HEK293T
Source text: (§1) In this example, MAPPIT forward and inverse assays were developed that enable the assessment of sulfonamides to induce binding between DCAF15 and RBM39. […] The experimental setup was according to the procedure described before, using the following plasmid constructs encoding the MAPPIT receptor and gp130 fusions: in forward mode the DCAF15 bait was fused to a MAPPIT chimeric receptor construct containing the extracellular leptin receptor domain (pCLL-DCAF15) and RBM39 proteins was fused to the partial gp130 domain; in inverse mode, the DCAF15 bait was fused to the partial gp130 domain and RBM39 was fused to a MAPPIT transmembrane receptor (pCLG-RBM39). […] Cells were treated with leptin without or with the indicated dose of test compound (indisulam, tasisulam, CQS or E7820) at 24 hours after transfection. Luciferase activity was measured 24 hours after test compound treatment using the Luciferase Assay System kit (PROMEGA, Madison, Wis.) with an Ensight plate reader (PERKIN ELMER LIFE SCIENCES, Waltham, Mass.). […] Error bars represent standard deviations. […] The results shown in FIG. 12 indicate that only in the inverse assay mode sulfonamide-induced DCAF15-RBM39 binding can be observed.

[3] = target: T2, DCAF15-RBM39 binding; assay: MAPPIT forward assay, DCAF15 receptor fusion + RBM39 gp130 fusion; conditions: forward configuration; leptin; HEK293T
Source text: as §1

| SMILES | competition with TMP-lenalidomide hybrid ligand for binding to CRBN (inhibition of luciferase signal) [1] | sulfonamide-induced recruitment of RBM39 to DCAF15 (luciferase signal) [2] | sulfonamide-induced recruitment of RBM39 to DCAF15 (luciferase signal) [3] |
| --- | --- | --- | --- |
| Cc1nc2cccc(N)c2c(=O)n1C1CCC(=O)NC1=O (stereo not drawn) [CC-122] | specifically inhibit hybrid-ligand induced luciferase reporter activation in a dose-dependent manner; also recorded: competed efficiently | – | – |
| Cc1ccc(NS(=O)(=O)c2cccc(C#N)c2)c2[nH]cc(C#N)c12 [E7820] | – | dose-dependent luciferase signal increase | – |
| NS(=O)(=O)c1ccc(S(=O)(=O)Nc2cccc3c(Cl)c[nH]c23)cc1 [indisulam] | – | dose-dependent luciferase signal increase | only in inverse mode could a dose-dependent luciferase signal increase be observed |
| Nc1cccc2c1C(=O)N(C1CCC(=O)NC1=O)C2=O (stereo not drawn) [pomalidomide] | specifically inhibit hybrid-ligand induced luciferase reporter activation in a dose-dependent manner; also recorded: competed efficiently | – | – |
| O=C(NS(=O)(=O)c1ccc(Br)s1)c1ccc(Cl)cc1Cl [tasisulam] | – | dose-dependent luciferase signal increase | – |
